In PubChem BioAssay AID1963974 (Molecular Pharmacology Branch, DTP, NCI, 2024):
pIC50: −log10 of the molar value.

System: 648629-189-R-J1-PDC spheroids with HUVEC/MSC, viability
Test: Anticancer human tumor 648629-189-R-J1-PDC patient-derived bladder carcinoma cell line growth inhibition [PI3K]
Conditions: for pIC50: curve of first compound; for viability, T/C: stronger effect = lower value
How it was run: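 Stroma-containing spheroids: tumor line, pooled-donor HUVEC, hMSC. Treatments: targeted agents with PI3K inhibitors. Dosing: clinically relevant, half-log spacing, 10 microM ceiling without known Cmax. Read-out: cell viability.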

[1] = second compound 0.0316 µM, first compound 0.0316 µM
[2] = second compound 0.0316 µM, first compound 0.1 µM
[3] = second compound 0.0316 µM, first compound 0.316 µM
[4] = second compound 0.0316 µM, first compound 1 µM
[5] = second compound 0.0316 µM, first compound 3.16 µM
[6] = second compound 0.0316 µM, first compound 10 µM
[7] = second compound 0.1 µM, first compound 0.0316 µM
[8] = second compound 0.1 µM, first compound 0.1 µM
[9] = second compound 0.1 µM, first compound 0.316 µM
[10] = second compound 0.1 µM, first compound 1 µM
[11] = second compound 0.1 µM, first compound 3.16 µM
[12] = second compound 0.1 µM, first compound 10 µM
[13] = second compound 0.316 µM, first compound 0.0316 µM
[14] = second compound 0.316 µM, first compound 0.1 µM
[15] = second compound 0.316 µM, first compound 0.316 µM
[16] = second compound 0.316 µM, first compound 1 µM
[17] = second compound 0.316 µM, first compound 3.16 µM
[18] = second compound 0.316 µM, first compound 10 µM
[19] = second compound 1 µM, first compound 0.0316 µM
[20] = second compound 1 µM, first compound 0.1 µM
[21] = second compound 1 µM, first compound 0.316 µM
[22] = second compound 1 µM, first compound 1 µM
[23] = second compound 1 µM, first compound 3.16 µM
[24] = second compound 1 µM, first compound 10 µM
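Further: spheroids exposed to agents for seven days before reading.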
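Wherever viability, T/C is given: percent of vehicle control luminescence where 100% = DMSO treated spheroids.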

Q: How did the pIC50 (second compound 0.0316 µM) turn out when CC1(C)CCC(Nc2ncc(C(F)(F)F)c(-c3c[nH]c4c(P(C)(C)=O)c(C#N)ccc34)n2)CN1 (stereo unspecified) + CC(Nc1ncnc2nc[nH]c12)c1cc2cccc(Cl)c2c(=O)n1-c1ccccc1 was run?
A: > 7.50

Q: What about the pIC50 (second compound 0.1 µM) of the same compound?
A: > 7.50

Q: And the pIC50 (second compound 0.316 µM)?
A: > 7.50

Q: And the pIC50 (second compound 1 µM)?
A: > 7.50

Q: And the pIC50 (second compound 3.16 µM)?
A: > 7.50

Q: What about the pIC50 (second compound 10 µM) of the same compound?
A: > 7.50

Q: What about the viability, T/C [1] of the same compound?
A: 35.1%

Q: What about the viability, T/C [2] of the same compound?
A: 29%

Q: What about the viability, T/C [3] of the same compound?
A: 35.4%

Q: What about the viability, T/C [4] of the same compound?
A: 35.2%

Q: And the viability, T/C [5]?
A: 43%

Q: What about the viability, T/C [6] of the same compound?
A: 11.7%

Q: And the viability, T/C [7]?
A: 36.7%

Q: What about the viability, T/C [8] of the same compound?
A: 33.5%

Q: And the viability, T/C [9]?
A: 28.3%

Q: And the viability, T/C [10]?
A: 36%

Q: What about the viability, T/C [11] of the same compound?
A: 39.6%

Q: What about the viability, T/C [12] of the same compound?
A: 10.8%

Q: What about the viability, T/C [13] of the same compound?
A: 32%

Q: What about the viability, T/C [14] of the same compound?
A: 29.4%

Q: And the viability, T/C [15]?
A: 29.1%

Q: And the viability, T/C [16]?
A: 31.8%

Q: And the viability, T/C [17]?
A: 39.1%

Q: And the viability, T/C [18]?
A: 11.5%

Q: And the viability, T/C [19]?
A: 30.6%

Q: What about the viability, T/C [20] of the same compound?
A: 32.4%

Q: And the viability, T/C [21]?
A: 29.8%

Q: What about the viability, T/C [22] of the same compound?
A: 31.6%

Q: What about the viability, T/C [23] of the same compound?
A: 42%

Q: What about the viability, T/C [24] of the same compound?
A: 10.1%

Q: And the viability, T/C (second compound 3.16 µM, first compound 0.0316 µM)?
A: 34%

Q: And the viability, T/C (second compound 3.16 µM, first compound 0.1 µM)?
A: 29.2%

Q: And the viability, T/C (second compound 3.16 µM, first compound 0.316 µM)?
A: 28.9%

Q: What about the viability, T/C (second compound 3.16 µM, first compound 1 µM) of the same compound?
A: 30.7%

Q: What about the viability, T/C (second compound 3.16 µM, first compound 3.16 µM) of the same compound?
A: 36.2%

Q: What about the viability, T/C (second compound 3.16 µM, first compound 10 µM) of the same compound?
A: 7.47%

Q: And the viability, T/C (second compound 10 µM, first compound 0.0316 µM)?
A: 39.7%

Q: And the viability, T/C (second compound 10 µM, first compound 0.1 µM)?
A: 32%

Q: And the viability, T/C (second compound 10 µM, first compound 0.316 µM)?
A: 33.3%

Q: And the viability, T/C (second compound 10 µM, first compound 1 µM)?
A: 30.2%

Q: And the viability, T/C (second compound 10 µM, first compound 3.16 µM)?
A: 34.7%

Q: And the viability, T/C (second compound 10 µM, first compound 10 µM)?
A: 4.52%

Q: With CNC(=O)c1ccc(N2C(=S)N(c3ccc(C#N)c(C(F)(F)F)c3)C(=O)C2(C)C)cc1F + COc1c(OCCCN2CCOCC2)ccc2c3n(c(=NC(=O)c4cnc(N)nc4)nc12)CCN3 as the compound, how does the pIC50 (second compound 0.00316 µM) read?
A: < 5.00

Q: What about the pIC50 (second compound 0.01 µM) of the same compound?
A: < 5.00

Q: What about the pIC50 (second compound 0.0316 µM) of the same compound?
A: < 5.00

Q: What about the pIC50 (second compound 0.1 µM) of the same compound?
A: < 5.00

Q: What about the pIC50 (second compound 0.316 µM) of the same compound?
A: > 7.50

Q: What about the pIC50 (second compound 1 µM) of the same compound?
A: > 7.50

Q: And the viability, T/C (second compound 0.00316 µM, first compound 0.0316 µM)?
A: 107%

Q: What about the viability, T/C (second compound 0.00316 µM, first compound 0.1 µM) of the same compound?
A: 103%

Q: What about the viability, T/C (second compound 0.00316 µM, first compound 0.316 µM) of the same compound?
A: 113%

Q: And the viability, T/C (second compound 0.00316 µM, first compound 1 µM)?
A: 116%

Q: And the viability, T/C (second compound 0.00316 µM, first compound 3.16 µM)?
A: 121%

Q: And the viability, T/C (second compound 0.00316 µM, first compound 10 µM)?
A: 97.7%

Q: And the viability, T/C (second compound 0.01 µM, first compound 0.0316 µM)?
A: 117%

Q: And the viability, T/C (second compound 0.01 µM, first compound 0.1 µM)?
A: 108%

Q: What about the viability, T/C (second compound 0.01 µM, first compound 0.316 µM) of the same compound?
A: 102%

Q: What about the viability, T/C (second compound 0.01 µM, first compound 1 µM) of the same compound?
A: 103%

Q: And the viability, T/C (second compound 0.01 µM, first compound 3.16 µM)?
A: 107%

Q: What about the viability, T/C (second compound 0.01 µM, first compound 10 µM) of the same compound?
A: 81.1%

Q: What about the viability, T/C [1] of the same compound?
A: 93.7%

Q: What about the viability, T/C [2] of the same compound?
A: 92.2%

Q: And the viability, T/C [3]?
A: 114%

Q: What about the viability, T/C [4] of the same compound?
A: 101%

Q: What about the viability, T/C [5] of the same compound?
A: 98.6%

Q: And the viability, T/C [6]?
A: 84%

Q: And the viability, T/C [7]?
A: 66%

Q: What about the viability, T/C [8] of the same compound?
A: 73.9%

Q: What about the viability, T/C [9] of the same compound?
A: 72.8%

Q: And the viability, T/C [10]?
A: 74.8%

Q: What about the viability, T/C [11] of the same compound?
A: 62.9%

Q: And the viability, T/C [12]?
A: 67.5%

Q: What about the viability, T/C [13] of the same compound?
A: 20.7%

Q: And the viability, T/C [14]?
A: 26.3%

Q: And the viability, T/C [15]?
A: 28.3%

Q: And the viability, T/C [16]?
A: 25.5%

Q: And the viability, T/C [17]?
A: 24.8%

Q: And the viability, T/C [18]?
A: 25.9%

Q: And the viability, T/C [19]?
A: 4.11%

Q: What about the viability, T/C [20] of the same compound?
A: 3.82%

Q: And the viability, T/C [21]?
A: 3.77%

Q: What about the viability, T/C [22] of the same compound?
A: 4.37%

Q: And the viability, T/C [23]?
A: 3.8%

Q: And the viability, T/C [24]?
A: 3.34%

Q: With Cn1cnc2c(F)c(Nc3ccc(Br)cc3Cl)c(C(=O)NOCCO)cc21 + COc1c(OCCCN2CCOCC2)ccc2c3n(c(=NC(=O)c4cnc(N)nc4)nc12)CCN3 as the compound, how does the pIC50 (second compound 0.00316 µM) read?
A: < 5.52

Q: What about the pIC50 (second compound 0.01 µM) of the same compound?
A: < 5.52

Q: What about the pIC50 (second compound 0.0316 µM) of the same compound?
A: < 5.52

Q: What about the pIC50 (second compound 0.1 µM) of the same compound?
A: < 5.52

Q: What about the pIC50 (second compound 0.316 µM) of the same compound?
A: > 8.02

Q: What about the pIC50 (second compound 1 µM) of the same compound?
A: > 8.02

Q: And the viability, T/C (second compound 0.00316 µM, first compound 0.00949 µM)?
A: 121%

Q: And the viability, T/C (second compound 0.00316 µM, first compound 0.03 µM)?
A: 82.1%

Q: And the viability, T/C (second compound 0.00316 µM, first compound 0.0949 µM)?
A: 101%

Q: What about the viability, T/C (second compound 0.00316 µM, first compound 0.3 µM) of the same compound?
A: 83.6%

Q: What about the viability, T/C (second compound 0.00316 µM, first compound 0.949 µM) of the same compound?
A: 96.6%

Q: And the viability, T/C (second compound 0.00316 µM, first compound 3 µM)?
A: 92.3%

Q: And the viability, T/C (second compound 0.01 µM, first compound 0.00949 µM)?
A: 103%

Q: What about the viability, T/C (second compound 0.01 µM, first compound 0.03 µM) of the same compound?
A: 90.2%

Q: And the viability, T/C (second compound 0.01 µM, first compound 0.0949 µM)?
A: 99.2%

Q: What about the viability, T/C (second compound 0.01 µM, first compound 0.3 µM) of the same compound?
A: 89.3%

Q: What about the viability, T/C (second compound 0.01 µM, first compound 0.949 µM) of the same compound?
A: 90.5%

Q: What about the viability, T/C (second compound 0.01 µM, first compound 3 µM) of the same compound?
A: 92.7%

Q: What about the viability, T/C (second compound 0.0316 µM, first compound 0.00949 µM) of the same compound?
A: 90%

Q: What about the viability, T/C (second compound 0.0316 µM, first compound 0.03 µM) of the same compound?
A: 93.8%

Q: And the viability, T/C (second compound 0.0316 µM, first compound 0.0949 µM)?
A: 102%

Q: And the viability, T/C (second compound 0.0316 µM, first compound 0.3 µM)?
A: 87%

Q: And the viability, T/C (second compound 0.0316 µM, first compound 0.949 µM)?
A: 80.8%

Q: What about the viability, T/C (second compound 0.0316 µM, first compound 3 µM) of the same compound?
A: 78.6%

Q: What about the viability, T/C (second compound 0.1 µM, first compound 0.00949 µM) of the same compound?
A: 62.4%

Q: What about the viability, T/C (second compound 0.1 µM, first compound 0.03 µM) of the same compound?
A: 59.3%

Q: What about the viability, T/C (second compound 0.1 µM, first compound 0.0949 µM) of the same compound?
A: 59%

Q: What about the viability, T/C (second compound 0.1 µM, first compound 0.3 µM) of the same compound?
A: 73.5%

Q: And the viability, T/C (second compound 0.1 µM, first compound 0.949 µM)?
A: 64.4%

Q: And the viability, T/C (second compound 0.1 µM, first compound 3 µM)?
A: 59.4%

Q: What about the viability, T/C (second compound 0.316 µM, first compound 0.00949 µM) of the same compound?
A: 20.6%

Q: And the viability, T/C (second compound 0.316 µM, first compound 0.03 µM)?
A: 25.5%

Q: What about the viability, T/C (second compound 0.316 µM, first compound 0.0949 µM) of the same compound?
A: 24.7%

Q: And the viability, T/C (second compound 0.316 µM, first compound 0.3 µM)?
A: 28%

Q: And the viability, T/C (second compound 0.316 µM, first compound 0.949 µM)?
A: 33.7%

Q: And the viability, T/C (second compound 0.316 µM, first compound 3 µM)?
A: 32.3%

Q: What about the viability, T/C (second compound 1 µM, first compound 0.00949 µM) of the same compound?
A: 3.08%

Q: And the viability, T/C (second compound 1 µM, first compound 0.03 µM)?
A: 3.98%

Q: What about the viability, T/C (second compound 1 µM, first compound 0.0949 µM) of the same compound?
A: 2.82%

Q: What about the viability, T/C (second compound 1 µM, first compound 0.3 µM) of the same compound?
A: 3.55%

Q: What about the viability, T/C (second compound 1 µM, first compound 0.949 µM) of the same compound?
A: 2.39%

Q: And the viability, T/C (second compound 1 µM, first compound 3 µM)?
A: 1.24%
